From ChEMBL document CHEMBL1201862, “PubChem BioAssay data set” (2004)
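Dose response: 5 concentrations. Exposure: 48 h. Format: 96-well plates. Endpoint: linear interpolation; highest concentration if not reached. GI50 is the concentration that inhibits growth by half.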 The source made the active and inactive calls. Cut-off read from the data, not from the text of the source: active = GI50 up to about 1.1 µM and inactive = higher.

Tests used:
Assay in all cases: inhibition of tumour cell growth, NCI panel, 48 h
SK-MEL-5 = system: SK-MEL-5
Malme-3M = system: Malme-3M
A498 = system: A498
SK-MEL-2 = system: SK-MEL-2
NCI-H522 = system: NCI-H522
SNB-19 = system: SNB-19
U-251 = system: U-251
K562 = system: K562
M14 = system: M14
UACC-257 = system: UACC-257
CCRF-CEM = system: CCRF-CEM
XF498 = system: XF498
HOP-92 = system: HOP-92
M19-MEL = system: M19-MEL
KM12 = system: KM12
LXFL 529 = system: LXFL 529
SF-539 = system: SF-539
OVCAR-3 = system: OVCAR-3
SF-295 = system: SF-295
DMS-114 = system: DMS-114
DMS-273 = system: DMS-273
RPMI-8226 = system: RPMI-8226
OVCAR-5 = system: OVCAR-5
IGROV-1 = system: IGROV-1
OVCAR-8 = system: OVCAR-8
DLD-1 = system: DLD-1
A549 = system: A549
OVCAR-4 = system: OVCAR-4
NCI-H460 = system: NCI-H460
786-0 = system: 786-0
SR = system: SR
HCC 2998 = system: HCC 2998
MOLT-4 = system: MOLT-4
CAKI-1 = system: CAKI-1
SNB-75 = system: SNB-75
NCI-H23 = system: NCI-H23
ACHN = system: ACHN
UO-31 = system: UO-31
SW-620 = system: SW-620
SK-OV-3 = system: SK-OV-3
SF-268 = system: SF-268
UACC-62 = system: UACC-62
HOP-62 = system: HOP-62
NCI-H226 = system: NCI-H226
RXF 631 = system: RXF 631
EKVX = system: EKVX
TK-10 = system: TK-10
SNB-78 = system: SNB-78
SK-MEL-28 = system: SK-MEL-28
HCT-116 = system: HCT-116
COLO 205 = system: COLO 205
HOP-18 = system: HOP-18
LOX IMVI = system: LOX IMVI
HT-29 = system: HT-29
SN12C = system: SN12C

Measured: GI50

CCn1c(C)nc([N+](=O)[O-])c1Sc1ncc[nH]1
inactive: SK-MEL-5 48.4 µM | Malme-3M 20.1 µM | A498 > 100 µM | SK-MEL-2 25.4 µM | NCI-H522 15.6 µM | SNB-19 > 100 µM | U-251 44 µM | K562 31.4 µM | M14 32.4 µM | UACC-257 39.4 µM | CCRF-CEM 19.8 µM | XF498 43.2 µM | HOP-92 25.8 µM | M19-MEL 36.8 µM | KM12 > 100 µM | LXFL 529 26.1 µM | SF-539 52.6 µM | OVCAR-3 74.8 µM | SF-295 > 100 µM | DMS-114 34.4 µM | DMS-273 57.1 µM | RPMI-8226 21.1 µM | OVCAR-5 > 100 µM | IGROV-1 71 µM | OVCAR-8 46.1 µM | DLD-1 30.5 µM | A549 > 100 µM | OVCAR-4 64.4 µM | NCI-H460 66.2 µM | 786-0 > 100 µM | SR 23.3 µM | HCC 2998 > 100 µM | MOLT-4 16.7 µM | CAKI-1 68.1 µM | SNB-75 50.6 µM | NCI-H23 29.9 µM | ACHN 48.1 µM | UO-31 30.5 µM | SW-620 48.2 µM | SK-OV-3 > 100 µM | SF-268 69.7 µM | UACC-62 28.5 µM | HOP-62 > 100 µM | NCI-H226 > 100 µM | RXF 631 24.7 µM | EKVX 75.7 µM | TK-10 > 100 µM | SNB-78 33.7 µM | SK-MEL-28 31 µM | HCT-116 43.2 µM | COLO 205 27.9 µM | HOP-18 4.8 µM | LOX IMVI 14.7 µM | HT-29 78.7 µM | SN12C 37 µM
